From US10301295B2, “Herbicidal compounds” (Syngenta Participations AG, priority 2014, dated 2019) come the findings set out here.

Where two headings read alike, the source gives them in different places.

Common to all, as to assay: Glasshouse assay for herbicidal activity, pre-/post-emergence (percentage phytotoxicity)
Holding throughout (format): in vivo

Experiment [1] deals with Alopecurus myosuroides (ALOMY). As to conditions: Alopecurus myosuroides, Rate 250 g/ha, 100%=total damage, 0%=no damage. The protocol:
(§1) Seeds of a variety of monocotyledonous and dicotyledonous test plants are sown in standard soil in pots. The plants are cultivated for one day (for pre-emergence) or for about 12 days (for post-emergence) under controlled conditions in a glasshouse (warm climate species at 24/18° C., cool climate species at 20/16° C., both at day/night; 16 hours light; 65% humidity). The test plants are then grown on, in a glasshouse (greenhouse) under controlled conditions (warm climate species at 24/18° C., cool climate species at 20/16° C., both at day/night; 16 hours light; 65% humidity) and are watered twice daily. 15 days after application of the test herbicide (15DAA) (for post-emergence), and 20 days after application of the test herbicide (20DAA) (for pre-emergence), the test plants are evaluated visually, and an assessed percentage phytotoxicity score is given for each herbicidal application on each plant species (with 100%=total damage to plant; 0%=no damage to plant). The plant species tested are as follows: Alopecurus myosuroides (ALOMY), Avena fatua (AVEFA), Lolium perenne (LOLPE), Echinochloa crus-galli (ECHCG).

In another experiment the test system is Avena fatua (AVEFA). As to conditions: Avena fatua, Rate 250 g/ha, 100%=total damage, 0%=no damage. The protocol:
as §1

Experiment [2] concerns Echinochloa crus-galli (ECHCG). As to conditions: Echinochloa crus-galli, Rate 250 g/ha, 100%=total damage, 0%=no damage. The protocol: as §1
For another experiment, the system named is Lolium perenne (LOLPE). As to conditions: Lolium perenne, Rate 250 g/ha, 100%=total damage, 0%=no damage. The protocol:
as §1

Setting [3] is: 360 h, post-emergence, visual assessment 15 DAA, read-out: Post-emergence herbicidal activity (percentage phytotoxicity), ALOMY POST.
Setting [4] is: 480 h, pre-emergence, visual assessment 20 DAA, read-out: Pre-emergence herbicidal activity (percentage phytotoxicity), ALOMY PRE.
Where [5] appears, read: post-emergence, 360 h, post-emergence, visual assessment 15 DAA, read-out: Post-emergence herbicidal activity (percentage phytotoxicity), AVEFA POST.
The mark [6] stands for this setting: pre-emergence, 480 h, pre-emergence, visual assessment 20 DAA, read-out: Pre-emergence herbicidal activity (percentage phytotoxicity), AVEFA PRE.
[7] abbreviates: post-emergence, 360 h, post-emergence, visual assessment 15 DAA, read-out: Post-emergence herbicidal activity (percentage phytotoxicity), ECHCG POST.
Where [8] appears, read: pre-emergence, 480 h, pre-emergence, visual assessment 20 DAA, read-out: Pre-emergence herbicidal activity (percentage phytotoxicity), ECHCG PRE.
The mark [9] stands for this setting: post-emergence, 360 h, post-emergence, visual assessment 15 DAA, read-out: Post-emergence herbicidal activity (percentage phytotoxicity), LOLPE POST.
[10] abbreviates: pre-emergence, 480 h, pre-emergence, visual assessment 20 DAA, read-out: Pre-emergence herbicidal activity (percentage phytotoxicity), LOLPE PRE.

Regarding `Cc1cc(-c2ncc(C#N)cn2)cc(C)c1C1C(=O)CC(CCNC(=O)C2=NOC(C)(C)C2)C1=O` (stereo not drawn) [Compound A114], the pest or weed control at 250 g/ha turned out to be 90% in experiment [1] (setting [3]); 90% in experiment [1] (setting [4]); 100% in the experiment on Avena fatua (AVEFA) (setting [5]); 80% in the experiment with Avena fatua (AVEFA) (setting [6]); 100% in experiment [2] (setting [7]); 70% in experiment [2] (setting [8]). The pest or weed control at 250 g/ha in the experiment on Lolium perenne (LOLPE) (setting [9]) turned out to be 100%; with Lolium perenne (LOLPE) (setting [10]), 70%.
Take `Cc1cc(C)c(C2C(=O)CC(CCNc3ccc([N+](=O)[O-])cc3)C2=O)c(C)c1` (stereo not drawn) [Compound A105]: the pest or weed control at 250 g/ha in experiment [1] (setting [3]) turned out to be 90%; in experiment [1] (setting [4]) it was 20%; in the experiment with Avena fatua (AVEFA) (setting [5]), 80%; in the experiment on Avena fatua (AVEFA) (setting [6]), 20%; in experiment [2] (setting [7]), 90%; in experiment [2] (setting [8]) it was 10%. For the same molecule, the pest or weed control at 250 g/ha stood at 80% in the experiment on Lolium perenne (LOLPE) (setting [9]) and 20% in the experiment on Lolium perenne (LOLPE) (setting [10]).
As to `CNC(=O)NCCC1CC(=O)C(c2c(C)cc(C)cc2C)C1=O` (stereo not drawn) [Compound A94, 1-[2-[2,4-dioxo-3-(2,4,6-trimethylphenyl)cyclopentyl]ethyl]-3-methyl-urea], the pest or weed control at 250 g/ha in experiment [1] (setting [3]) amounted to 60%; in experiment [1] (setting [4]), 80%; in the experiment on Avena fatua (AVEFA) (setting [5]), 90%; in the experiment with Avena fatua (AVEFA) (setting [6]) it was 60%; in experiment [2] (setting [7]) it was 90%; in experiment [2] (setting [8]) it was 70%. Also, the pest or weed control at 250 g/ha in the experiment with Lolium perenne (LOLPE) (setting [9]) is 80%; in the experiment on Lolium perenne (LOLPE) (setting [10]), 100%.
As to `Cc1cc(C)c(C2C(=O)CC(CCNc3ncccc3C#N)C2=O)c(C)c1` (stereo not drawn) [Compound A124], the pest or weed control at 250 g/ha is 80% in experiment [1] (setting [3]); 60% in experiment [1] (setting [4]); 60% with Avena fatua (AVEFA) (setting [5]); 40% with Avena fatua (AVEFA) (setting [6]); 100% in experiment [2] (setting [7]); 90% in experiment [2] (setting [8]). The pest or weed control at 250 g/ha with Lolium perenne (LOLPE) (setting [9]) and in the experiment on Lolium perenne (LOLPE) (setting [10]) was 80% each time.
For `Cc1cc(C)c(C2C(=O)C[C@H](CCNC(=O)C3=NOC(C)(C)C3)C2=O)c(C)c1` (stereo partly drawn) [Compound A103], the pest or weed control at 250 g/ha in experiment [1] (setting [3]) turned out to be 80%; in experiment [1] (setting [4]), 80%; in the experiment on Avena fatua (AVEFA) (setting [5]), 80%; in the experiment on Avena fatua (AVEFA) (setting [6]), 50%; in experiment [2] (setting [7]) it was 70%; in experiment [2] (setting [8]), 60%. Besides, the pest or weed control at 250 g/ha with Lolium perenne (LOLPE) (setting [9]) was 70%; in the experiment with Lolium perenne (LOLPE) (setting [10]), 80%.
For `Cc1cc(-c2ncc(Br)cn2)cc(C)c1C1C(=O)CC(CCNC(=O)C2=NOC(C)(C)C2)C1=O` (stereo not drawn) [Compound A116], the pest or weed control at 250 g/ha came out at 100% in experiment [1] (setting [3]); 90% in experiment [1] (setting [4]); 100% in the experiment on Avena fatua (AVEFA) (setting [5]); 90% with Avena fatua (AVEFA) (setting [6]); 100% in experiment [2] (setting [7]); 90% in experiment [2] (setting [8]). The pest or weed control at 250 g/ha in the experiment with Lolium perenne (LOLPE) (setting [9]) was found to be 100%; with Lolium perenne (LOLPE) (setting [10]), 90%.
As to `Cc1cc(C)c(C2C(=O)CC(CCNc3ncc(Br)cn3)C2=O)c(C)c1` (stereo not drawn) [Compound A126, 4-[2-[(5-bromopyrimidin-2-yl)amino]ethyl]-2-(2,4,6-trimethylphenyl)cyclopentane-1,3-dione], the pest or weed control at 250 g/ha in experiment [1] (setting [3]) turned out to be 90%; in experiment [1] (setting [4]), 80%; with Avena fatua (AVEFA) (setting [5]) it was 90%; with Avena fatua (AVEFA) (setting [6]), 100%; in experiment [2] (setting [7]), 90%; in experiment [2] (setting [8]), 80%. The pest or weed control at 250 g/ha in the experiment with Lolium perenne (LOLPE) (setting [9]) and with Lolium perenne (LOLPE) (setting [10]) was 90% in each case.
As to `Cc1cc(C)c(C2C(=O)CC(CCNc3ncc(Cl)cn3)C2=O)c(C)c1` (stereo not drawn) [Compound A125], the pest or weed control at 250 g/ha is 90% in experiment [1] (setting [3]); 90% in experiment [1] (setting [4]); 90% with Avena fatua (AVEFA) (setting [5]); 80% in the experiment with Avena fatua (AVEFA) (setting [6]); 100% in experiment [2] (setting [7]); 90% in experiment [2] (setting [8]). The figures for the pest or weed control at 250 g/ha in the experiment with Lolium perenne (LOLPE) (setting [9]) and in the experiment with Lolium perenne (LOLPE) (setting [10]) were 100% and 90%, respectively.
Regarding `C#Cc1cc(C)cc(C)c1C1C(=O)CC(CCNC(=O)C2=NOC(C)(C)C2)C1=O` (stereo not drawn) [Compound A123, N-[2-[3-(2-ethynyl-4,6-dimethyl-phenyl)-2,4-dioxo-cyclopentyl]ethyl]-5,5-dimethyl-4H-isoxazole-3-carboxamide], the pest or weed control at 250 g/ha in experiment [1] (setting [3]) came out at 100%; in experiment [1] (setting [4]), 70%; in the experiment on Avena fatua (AVEFA) (setting [5]), 100%; with Avena fatua (AVEFA) (setting [6]), 50%; in experiment [2] (setting [7]), 100%; in experiment [2] (setting [8]) it was 20%. In addition, the pest or weed control at 250 g/ha in the experiment with Lolium perenne (LOLPE) (setting [9]) was 80%; in the experiment with Lolium perenne (LOLPE) (setting [10]), 90%.
On to `Cc1cc(C)c(C2C(=O)CC(CCNc3ccc([N+](=O)[O-])cn3)C2=O)c(C)c1` (stereo not drawn) [Compound A96], for which the pest or weed control at 250 g/ha in experiment [1] (setting [3]) was 90%; in experiment [1] (setting [4]), 80%; in the experiment with Avena fatua (AVEFA) (setting [5]), 100%; in the experiment on Avena fatua (AVEFA) (setting [6]), 90%; in experiment [2] (setting [7]), 100%; in experiment [2] (setting [8]), 100%. Also, the pest or weed control at 250 g/ha with Lolium perenne (LOLPE) (setting [9]) and in the experiment on Lolium perenne (LOLPE) (setting [10]) was 100% in each case.
Turning to `Cc1cc(C)c(C2C(=O)CC(CCNc3ccc([N+](=O)[O-])cc3C(F)(F)F)C2=O)c(C)c1` (stereo not drawn) [Compound A104], the pest or weed control at 250 g/ha was 90% in experiment [1] (setting [3]); 60% in experiment [1] (setting [4]); 80% in the experiment with Avena fatua (AVEFA) (setting [5]); 70% in the experiment with Avena fatua (AVEFA) (setting [6]); 70% in experiment [2] (setting [7]); 90% in experiment [2] (setting [8]). The pest or weed control at 250 g/ha with Lolium perenne (LOLPE) (setting [9]) was 90%; in the experiment on Lolium perenne (LOLPE) (setting [10]), 80%.
On to `CC#Cc1cc(C)c(C2C(=O)CC(CCNc3ccc(C#N)cn3)C2=O)c(C)c1` (stereo not drawn) [Compound A112], for which the pest or weed control at 250 g/ha was 100% in experiment [1] (setting [3]); 100% in experiment [1] (setting [4]); 100% with Avena fatua (AVEFA) (setting [5]); 90% in the experiment on Avena fatua (AVEFA) (setting [6]); 100% in experiment [2] (setting [7]); 100% in experiment [2] (setting [8]). The pest or weed control at 250 g/ha came out at 100% with Lolium perenne (LOLPE) (setting [9]) and 90% in the experiment on Lolium perenne (LOLPE) (setting [10]).
With `Cc1cc(-c2ccc(C#N)cn2)cc(C)c1C1C(=O)CC(CCNC(=O)C2=NOC(C)(C)C2)C1=O` (stereo not drawn) [Compound A119], the pest or weed control at 250 g/ha in experiment [1] (setting [3]) was 90%; in experiment [1] (setting [4]) it was 90%; in the experiment with Avena fatua (AVEFA) (setting [5]), 100%; in the experiment with Avena fatua (AVEFA) (setting [6]), 80%; in experiment [2] (setting [7]), 100%; in experiment [2] (setting [8]) it was 90%. Also, the values for the pest or weed control at 250 g/ha in the experiment with Lolium perenne (LOLPE) (setting [9]) and with Lolium perenne (LOLPE) (setting [10]) were 100% and 80%, respectively.
For the molecule `Cc1cc(-c2ncc(F)cn2)cc(C)c1C1C(=O)CC(CCNc2ccc(C(F)(F)F)cn2)C1=O` (stereo not drawn) [Compound A120], the pest or weed control at 250 g/ha in experiment [1] (setting [3]) was 90%; in experiment [1] (setting [4]), 90%; in the experiment with Avena fatua (AVEFA) (setting [5]) it was 100%; with Avena fatua (AVEFA) (setting [6]) it was 90%; in experiment [2] (setting [7]), 100%; in experiment [2] (setting [8]) it was 90%. For the same molecule, the pest or weed control at 250 g/ha in the experiment with Lolium perenne (LOLPE) (setting [9]) and in the experiment with Lolium perenne (LOLPE) (setting [10]) was 90% throughout.
Take `Cc1cc(C)c(C2C(=O)CC(CCNc3ncc(F)cn3)C2=O)c(C)c1` (stereo not drawn) [Compound A121]: the pest or weed control at 250 g/ha (in experiment [1] (setting [3]); in experiment [1] (setting [4]); with Avena fatua (AVEFA) (setting [5]); in the experiment on Avena fatua (AVEFA) (setting [6]); in experiment [2] (setting [7]); in experiment [2] (setting [8])) was 100% each time. The pest or weed control at 250 g/ha was 90% in the experiment on Lolium perenne (LOLPE) (setting [9]) and 100% with Lolium perenne (LOLPE) (setting [10]).
